We go through five compounds from article PMC10496123, “Potent Antifungal Activity of Penta-O-galloyl-β-D-Glucose against Drug-Resistant Candida albicans, Candida auris, and Other Non-albicans Candida Species” (ACS Infectious Diseases, 2023).

For one assay, the system named is Candida auris. Kind of assay: Growth inhibition by CLSI microbroth dilution. It is filed as cell-based. Conditions: Candidozyma auris, 48 h. On the technique in general: In broth dilution the organism is exposed to a series of concentrations in liquid medium.
The subject of another assay is Candida parapsilosis. The assay can be described thus: Growth inhibition by CLSI microbroth dilution. Conditions: 48 h, >90% growth inhibition. It is filed as cell-based.
Another assay has as its system Candida glabrata. The assay can be described thus: Growth inhibition by CLSI microbroth dilution. It is filed as cell-based. Conditions: Nakaseomyces glabratus, 48 h, >90% growth inhibition.
Assay [1] deals with Candida albicans. The assay can be described thus: Growth inhibition by CLSI microbroth dilution. It is filed as cell-based. Conditions: Candida albicans, >90% growth inhibition, 48 h.
In assay [2] the test system is Candida albicans. Also on record: method as in PMID 15790671. The note with it: addition of both Fe^2+ and Fe^3+; cited from earlier work.
A further assay relates to C. albicans. Also on record: method as in PMID 12760852. Conditions: 6 months of treatment in vitro; cited from earlier work.
For assay [3], the system named is C. albicans wild type (CAF2-1) and cdr1Δ/Δ cdr2Δ/Δ mdr1Δ/Δ flu1Δ/Δ. The assay can be described thus: microbe, parasite or virus in culture. It is filed as cell-based, Candida albicans. The note with it: for MIC90: Candida albicans, 72 h, RPMI-1640, 72 h, 30 °C, OD600.
The subject of assay [4] is C. albicans wild type (SN95, SN152) and ire1Δ/Δ, hap43Δ/Δ, rim101Δ/Δ. The assay can be described thus: microbe, parasite or virus in culture. It is filed as cell-based, Candida albicans. Conditions: mutants versus wild type.
Where [5] appears, read: strain AR Bank #0381, >90% growth inhibition.
Where [6] appears, read: strain AR Bank #0387, >90% growth inhibition.
[7] abbreviates: strain AR Bank #0390, >90% growth inhibition.

Converted amounts (≈) assume the structure as drawn.

As to `C[C@@H]1[C@H](O)[C@@H](C)/C=C/C=C/C=C/C=C/C=C/C=C/C=C/[C@H](O[C@@H]2O[C@H](C)[C@@H](O)[C@H](N)[C@@H]2O)C[C@@H]2O[C@](O)(C[C@@H](O)C[C@@H](O)[C@H](O)CC[C@@H](O)C[C@@H](O)CC(=O)O[C@H]1C)C[C@H](O)[C@H]2C(=O)O` [AMB, amphotericin B], the MIC (usually the lowest concentration found to suppress growth) turned out to be 1 µg/mL (≈ 1.08 µM) against Candida auris (setting [5]); 0.5 µg/mL (≈ 0.541 µM) in the assay on Candida auris (setting [6]); 2 µg/mL (≈ 2.16 µM) in the assay with Candida auris (setting [7]); 1 µg/mL (≈ 1.08 µM) against Candida parapsilosis (strain AR Bank #0335); 1 µg/mL (≈ 1.08 µM) in the assay on Candida parapsilosis (strain AR Bank #0337); 1 µg/mL (≈ 1.08 µM) against Candida parapsilosis (strain AR Bank #0338). The MIC turned out to be 2 µg/mL (≈ 2.16 µM) in the assay with Candida parapsilosis (strain AR Bank #0339); 1 µg/mL (≈ 1.08 µM) with Candida glabrata (strain AR Bank #0325); 1 µg/mL (≈ 1.08 µM) in the assay on Candida glabrata (strain AR Bank #0326); 1 µg/mL (≈ 1.08 µM) in the assay with Candida albicans [1] (ATCC90028, strain ATCC 90028); 1 µg/mL (≈ 1.08 µM) in the assay with Candida albicans [1] (strain MH12).

As for `Cc1cc(C2CCCCC2)n(O)c(=O)c1` [ciclopirox], the “Antifungal activity on addition of iron” value in the assay on Candida albicans [2] is “abrogated”. For the same compound, in the assay on C. albicans, the Development of resistance result is recorded as “did not develop”.

Consider `OC(Cn1cncn1)(Cn1cncn1)c1ccc(F)cc1F` [FLC, fluconazole], for which the MIC is 4 µg/mL (≈ 13.1 µM) in the assay with Candida auris (setting [5]); 1 µg/mL (≈ 3.27 µM) with Candida auris (setting [6]); greater than 8 µg/mL in the assay on Candida auris (setting [7]); greater than 8 µg/mL with Candida parapsilosis (strain AR Bank #0335); greater than 8 µg/mL against Candida parapsilosis (strain AR Bank #0337); greater than 8 µg/mL in the assay on Candida parapsilosis (strain AR Bank #0338). Moreover, the minimum inhibitory concentration (MIC) in the assay on Candida parapsilosis (strain AR Bank #0339) is greater than 8 µg/mL; against Candida glabrata (strain AR Bank #0325), greater than 8 µg/mL; against Candida glabrata (strain AR Bank #0326), 4 µg/mL (≈ 13.1 µM); in the assay with Candida albicans [1] (ATCC90028, strain ATCC 90028) it was 0.25 µg/mL (≈ 0.816 µM); against Candida albicans [1] (strain MH12) it was greater than 8 µg/mL. Moreover, the MIC90 is greater than 5 µg/mL in assay [3] (Wild type (CAF2-1)) and 0.16 µg/mL (≈ 0.522 µM) in assay [3] (cdr1Δ/Δ cdr2Δ/Δ mdr1Δ/Δ flu1Δ/Δ). Further, the “Effect of absence of major efflux pumps (CDR1, CDR2, FLU1, MDR1) on sensitivity” value in assay [3] (mutant versus wild type) was “hypersensitivity”.

As to “bathophenanthrolinedisulfonate [BPS, reference compound]”, the “Effect of deletion of IRE1, HAP43 and RIM101 on sensitivity” value in assay [4] is recorded as “hypersensitive”.

For `CC(=O)N1CCN(c2ccc(OCC3COC(Cn4ccnc4)(c4ccc(Cl)cc4Cl)O3)cc2)CC1` (stereo not drawn) [KTC, ketoconazole], the MIC against Candida auris (setting [5]) is less than 0.0039 µg/mL; against Candida auris (setting [6]), less than 0.0039 µg/mL; against Candida auris (setting [7]) it was 0.5 µg/mL (≈ 0.941 µM); against Candida parapsilosis (strain AR Bank #0335), 4 µg/mL (≈ 7.53 µM); against Candida parapsilosis (strain AR Bank #0337) it was 2 µg/mL (≈ 3.76 µM); against Candida parapsilosis (strain AR Bank #0338), 0.5 µg/mL (≈ 0.941 µM). Besides, the MIC in the assay on Candida parapsilosis (strain AR Bank #0339) was 0.25 µg/mL (≈ 0.47 µM); in the assay with Candida glabrata (strain AR Bank #0325), 4 µg/mL (≈ 7.53 µM); with Candida glabrata (strain AR Bank #0326), 0.25 µg/mL (≈ 0.47 µM); in the assay with Candida albicans [1] (ATCC90028, strain ATCC 90028) it was less than 0.0039 µg/mL; in the assay on Candida albicans [1] (strain MH12), 1 µg/mL (≈ 1.88 µM).
